Tested on: MDA-MB-157 spheroids
Assay: Viability of ATPS-generated cancer cell spheroids treated with cisplatin (PRESTO BLUE enzymatic assay)
Type: cell-based
Conditions: cisplatin 25 to 200 μM, four days incubation
From the text: Component 1 contains 5%(w/w) polyethylene glycol (PEG, Mw: 35,000) and component 2 contains 12.8%(w/w) Dextran (DEX, Mw: 500,000). […] First, the PEG phase is loaded into wells of a well plate (destination plate) and this plate is placed on the work surface of a robotic liquid handler (FIG. 2). Then cells are harvested from a culture dish, mixed with the DEX phase at a 1:1 volumetric ratio to reduce DEX concentration to 6.4% (w/w), and loaded into a second plate (source plate). This plate is also placed on the work surface of the liquid handler. Pipette tips are mounted onto the dispense head of the liquid handler (FIG. 3) and are immersed into the source plate to load a defined volume (˜0.3 microliters) of the cell suspension in DEX phase. After retraction from the source plate, pipette tips are lowered into the destination plate and dispense their content. Dispensed solution forms a single droplet containing cells in each well and the droplet remains immiscible from its surrounding PEG phase (FIG. 4a). Cells aggregate and form an individual spheroid in each well (FIG. 4b and FIG. 5). […] The drug, diluted with culture media, was renewed once by the addition of 50 μL after two days of incubation.

N.N.[Cl][Pt][Cl] [cisplatin]
percent viability trend against drug concentration: gradual decrease as the cisplatin concentration increases

Reference: US20160091487A1, “ENGINEERING INDIVIDUALLY ADDRESSABLE CELLULAR SPHEROIDS USING AQUEOUS TWO-PHASE SYSTEMS” (priority 2012, published 2016)
